Measurements as given in patent US9085641B2, “Peptides regulating the surface expression of the T cell receptor” (Max-Delbruck-Centrum Fur Molekulare Medizin, priority 2006, dated 2015).
“Also recorded” adds a separate entry of the source.

Assays:
TCR [1] = test: Functional CD3 kappa assay: TCR expression on CD4+ PBMCs from healthy donors (antibody staining); assay type: cell-based, human; conditions: for TCR-expression: CD4+ cells from three healthy donors, FIG. 2A
Description: (§1) Heparinized full blood was layered on room-temperature LSM (density: 1.077 g/ml, Cambrex, Verviers, Belgium). After centrifugation at 400 g at 20° C. for 30 minutes, the interphase cells were isolated. The cells were washed twice with 50 ml PBS containing 2 mM EDTA and centrifuged at 300 g for 10 minutes at 20° C. The cell-pellet was resuspended in RPMI supplemented with 10% autologous serum, Pen/Strep, Gentamycin, Pyruvate, Hepes-buffer and L-Glutamine (Cambrex).
(§2) CD3 kappa or the control peptide was solubilized in RPMI with 1% human serum albumin (HSA, Calbiochem, Schwalbach, Germany) and 100 μM β-mercaptoethanol (β-ME, Invitrogene) at 10 mg/ml. PBMCs were incubated at 10^6 cells/ml with either peptide in the same medium and stained after on wash step with PBS with various antibodies (BD).
We synthesized the resulting 42 amino acids polypeptide without the signal sequence resulting in the CD3 kappa peptide having the amino acid sequence according to SEQ ID NO:4. All following experiments were performed with freshly isolated PBMCs from healthy donors in the presence of the 42-mer CD3-kappa or of a control peptide (consisting of the same amino acid composition and length but with a random sequence). […] The control peptide had no effect on TCR expression. Concentrations up to 1 mg/ml CD3-kappa induced a maximal response after 24 h resulting in a six fold upregulation of the TCR.

CD4 = test: Functional CD3 kappa assay: CD4 expression on PBMCs from healthy donors; assay type: cell-based, human; conditions: over 6 d, FIG. 2B
Description: as §1, §2
The TCR-expression level was stabilized after treatment with CD3-kappa in a majority of the CD4 cells, while untreated cells quickly converted to a low TCR expression state. Only at day 6 did the CD3-kappa treated cells show a decline in TCR expression.

PBMCs [2] = test: Functional CD3 kappa assay: cell surface markers and cytokine/chemokine receptors on PBMCs; assay type: cell-based, human; conditions: after six days; for expression of CD25 / expression of CD116: FIGS. 4a/4b
Description: as §1, §2

PBMCs [3] = test: Protein microarrays (human cytokine micro arrays 6.1 and 7.1) of secreted factors in culture supernatant; assay type: cell-based; conditions: for amount of EGF in the supernatant / amount of Eotaxin-2 in the supernatant / amount of GRO in the supernatant / amount of I-309 in the supernatant / amount of IFNγ in the supernatant / amount of IL-1ra in the supernatant / amount of IL-1α in the supernatant / amount of IL-1β in the supernatant / amount of IL-3 in the supernatant / amount of IL-6 in the supernatant / amount of IL-8 in the supernatant / amount of MCP-4 in the supernatant / amount of NAP-2 in the supernatant / amount of PARC in the supernatant / amount of RANTES in the supernatant / amount of SDF-1 in the supernatant / amount of TARC in the supernatant / amount of TGFβ3 in the supernatant / amount of soluble IL-6 Receptor in the supernatant / amount of soluble TNF-Receptor II in the supernatant: FIGS. 3b and 3c
Description: All reagents were from Raybiotech (Hilden, Germany). 2 ml supernatant from cultures with 5×10^6 cells/ml was mixed with blocking buffer (BB) and pipetted to blocked human cytokine micro arrays 6.1 and 7.1. After overnight incubation, the membranes were washed three times with wash buffer I and two times with wash buffer II. Anti-cytokine antibodies were added in 2 ml BB. After incubation and wash as described above, 2 ml streptavidin-HRP was added. Again after incubation and wash as described above, detection solution was added and exposure for 18 h to X-ray films were performed.

TCR [4] = test: TCR expression in PBMCs from patients recovering from T-cell toxic chemotherapy (fludarabine); assay type: cell-based, human
Description: as §2
CD3 zeta is synthesized at about 10% of the rate as the other CD3-complex proteins being the limiting component for a correct assembly of the CD3/TCR complex. A maximal upregulation of CD3 zeta can therefore result in a 10-fold upregulation of the TCR. The higher capability of CD3 kappa to upregulate the surface TCR expression might be explained with a reduced need of some of the CD3-complex components.

[5] = peripheral blood mononuclear cells, in vitro

SESVNISTNVNRFHTFPYCEIAEVSCRSKVRIELDLQSPESS (MISC_FEATURE: synthetic) [control peptide, reference compound]
TCR-expression (TCR [1]; after 24 h): no effect

SQVSPFKIPIEELEDRVFVNCNTSIYRASSLSN CRHTSSVEE (SQVSPFKIPIEELEDRVFVNCNTSIYRASSLSNCRHTSSVEE) [CD3 kappa, 42 amino acid long synthesized peptide, splice variant of CD3 delta without the signal peptide]
concentration giving detectable TCR-upregulation (TCR [1]; CD4+ cells from healthy donors, 24 h): ≥ 0.1 mg/mL | TCR-expression (TCR [1]; after 24 h): concentration dependent increase | TCR expression over time (TCR [1]; PBMCs / CD4 cells, over the next 6 days, FIG. 2B): remarkable and sustained increase; also recorded: stabilized | upregulation of the TCR (maximal response) (TCR [1]; PBMCs from healthy donors, up to 1 mg/ml, after 24 h): six | influence of stimulation with PMA and ionomycin on the TCR increase (TCR [1]; cells stimulated with PMA and ionomycin): did not affect this finding | TCR expression at day 6 (TCR [1]; day 6): decline | CD4 expression (CD4): up-regulation | expression of CD2 (PBMCs [2]; FIG. 3a): up-regulation | expression of CD58 (PBMCs [2]; FIG. 3a): down regulated | expression of CD127 (PBMCs [2]; FIG. 3a): up-regulation | expression of CD2 (PBMCs [2]; FIG. 3a, listed as CD3-kappa): increase | expression of CD127 (PBMCs [2]; FIG. 3a, listed as CD3-kappa): increase | expression of CD38 (PBMCs [2]; FIG. 4a): not changed | expression of CD44 (PBMCs [2]; FIG. 4a): not changed | expression of CD45RA (PBMCs [2]; FIG. 4a): not changed | expression of CD45RO (PBMCs [2]; FIG. 4a): not changed | expression of CD62L (PBMCs [2]; FIG. 4a): not changed | expression of CD95 (PBMCs [2]; FIG. 4a): not changed | expression of HLA-ABC (PBMCs [2]; FIG. 4a): not changed | expression of HLA-DR, DP, DQ (PBMCs [2]; FIG. 4a): not changed | expression of LAIR (PBMCs [2]; FIG. 4a): not changed | non-T-cell markers (PBMCs [2]; FIG. 4a): not affected | expression of CCR3 (PBMCs [2]; FIG. 4b): up-regulation | expression of CCR9 (PBMCs [2]; FIG. 4b): up-regulation | expression of CXCR1 (PBMCs [2]; FIG. 4b): up-regulation | expression of CXCR3 (PBMCs [2]; FIG. 4b): slight upregulation | expression of CXCR4 (PBMCs [2]; FIG. 4b): slight upregulation | expression of CCR3 (PBMCs [2]; FIG. 4b, listed as CD3-kappa): increase | expression of CCR9 (PBMCs [2]; FIG. 4b, listed as CD3-kappa): increase | expression of CXCR1 (PBMCs [2]; FIG. 4b, listed as CD3-kappa): increase | expression of CD25 (PBMCs [2]): up-regulation | expression of CD116 (PBMCs [2]): up-regulation | expression of CD25 (PBMCs [2]; listed as CD3-kappa): increase | expression of CD116 (PBMCs [2]; listed as CD3-kappa): increase | amount of EGF in the supernatant (PBMCs [3]): increased release | amount of Eotaxin-2 in the supernatant (PBMCs [3]): increased release | amount of GRO in the supernatant (PBMCs [3]): decreased release | amount of I-309 in the supernatant (PBMCs [3]): increased release | amount of IFNγ in the supernatant (PBMCs [3]): increased release | amount of IL-1ra in the supernatant (PBMCs [3]): decreased release | amount of IL-1α in the supernatant (PBMCs [3]): increased release | amount of IL-1β in the supernatant (PBMCs [3]): increased release | amount of IL-3 in the supernatant (PBMCs [3]): increased release | amount of IL-6 in the supernatant (PBMCs [3]): increased release | amount of IL-8 in the supernatant (PBMCs [3]): decreased release | amount of MCP-4 in the supernatant (PBMCs [3]): decreased release | amount of NAP-2 in the supernatant (PBMCs [3]): increased release | amount of PARC in the supernatant (PBMCs [3]): increased release | amount of RANTES in the supernatant (PBMCs [3]): decreased release | amount of SDF-1 in the supernatant (PBMCs [3]): decreased release | amount of TARC in the supernatant (PBMCs [3]): decreased release | amount of TGFβ3 in the supernatant (PBMCs [3]): increased release | amount of soluble IL-6 Receptor in the supernatant (PBMCs [3]): decreased release | amount of soluble TNF-Receptor II in the supernatant (PBMCs [3]): decreased release | amount of EGF in the supernatant (PBMCs [3]; listed as CD3-kappa): increased | amount of Eotaxin-2 in the supernatant (PBMCs [3]; listed as CD3-kappa): increased | amount of GRO in the supernatant (PBMCs [3]; listed as CD3-kappa): decreased | amount of I-309 in the supernatant (PBMCs [3]; listed as CD3-kappa): increased | amount of IFNγ in the supernatant (PBMCs [3]; listed as CD3-kappa): increased | amount of IL-1ra in the supernatant (PBMCs [3]; listed as CD3-kappa): decreased | amount of IL-1α in the supernatant (PBMCs [3]; listed as CD3-kappa): increased | amount of IL-1β in the supernatant (PBMCs [3]; listed as CD3-kappa): increased | amount of IL-3 in the supernatant (PBMCs [3]; listed as CD3-kappa): increased | amount of IL-6 in the supernatant (PBMCs [3]; listed as CD3-kappa): increased | amount of IL-8 in the supernatant (PBMCs [3]; listed as CD3-kappa): decreased | amount of MCP-4 in the supernatant (PBMCs [3]; listed as CD3-kappa): decreased | amount of NAP-2 in the supernatant (PBMCs [3]; listed as CD3-kappa): increased | amount of PARC in the supernatant (PBMCs [3]; listed as CD3-kappa): increased | amount of RANTES in the supernatant (PBMCs [3]; listed as CD3-kappa): decreased | amount of SDF-1 in the supernatant (PBMCs [3]; listed as CD3-kappa): decreased | amount of TARC in the supernatant (PBMCs [3]; listed as CD3-kappa): decreased | amount of TGFβ3 in the supernatant (PBMCs [3]; listed as CD3-kappa): increased | amount of soluble IL-6 Receptor in the supernatant (PBMCs [3]; listed as CD3-kappa): decreased | amount of soluble TNF-Receptor II in the supernatant (PBMCs [3]; listed as CD3-kappa): decreased | duration of the changes in secretion (PBMCs [3]; [5]): up to eight | time after addition at which the changes in secretion occur (PBMCs [3]; [5]): about 24 h | decreased TCR expression of patients after treatment (TCR [4]; PBMCs / T lymphocytes from patients with decreased TCR expression, compared with healthy individuals): restored to normal levels; also recorded: increased in a statistically significant manner | TCR upregulation (TCR [4]; PBMCs from patients recovering from fludarabine treatment, after 48 h treatment, FIG. 5): 25 fold
